Source: US9290488B2, “Azetidine-substituted quinoxalines as opioid receptor like-1 modulators” (priority 2011, dated 2016)
Where two headings read alike, the source gives them in different places.

What was measured:
[1] = In vitro metabolic stability, human liver microsomes; settings: % of compound remaining after 30 min incubation at 37° C., 2 μM, 0.5 mg/mL human liver microsomes
[2] = In vitro metabolic stability, rat liver microsomes; settings: for Metabolic Stability (%) Rat: % of compound remaining after 30 min incubation at 37° C., 2 μM, 0.5 mg/mL rat liver microsomes
[3] = In vitro assay of free unbound compound (equilibrium dialysis of rat serum); settings: for Free Unbound Drug Fraction (%): rat serum, 2 μg/mL, 24 h equilibrium dialysis at 37° C. against PBS
[4] = male, Crj:CD (SD), pH 7.4

Compound	Metabolic Stability (%) Human [1] [%]	Metabolic Stability (%) Rat [2] [%]	Free Unbound Drug Fraction (%) [3] [%]	free unbound drug fraction, times greater than counterpart d=2 compound ([3]; ratio B20a(ii) / CC02, rat serum)	metabolic stability upon exposure to rat liver microsomes, times greater than counterpart d=2 compound [4] [times]	metabolic stability upon exposure to rat liver microsomes, times greater than counterpart d=2 compound ([2]; ratio d=1 compound / d=2 counterpart, rat liver microsomes)
CC[C@@H]1C[C@@H]2C[C@H](C1)C[C@@H](N1[C@@H]3CCC[C@H]1C[C@@H](n1c(=O)c(N4CC[C@H]4C(=O)O)nc4ccccc41)C3)C2 [B20a(ii)]	70	84	3.3	over 2.7 times	–	–
O=C(O)[C@@H]1CCN1c1nc2ccccc2n([C@H]2C[C@H]3COC[C@@H](C2)N3[C@H]2C[C@@H]3CCC[C@@H](C3)C2)c1=O [C2a(ii)]	67	86	–	–	2.6	–
CC12C[C@H]3C[C@@H](N4[C@@H]5COC[C@H]4C[C@@H](n4c(=O)c(N6CC[C@H]6C(=O)O)nc6ccccc64)C5)C[C@@H]1C[C@@H]2C3 [C20a(ii)]	6.5	62	–	–	–	over 4.4 times
O=C(O)[C@@H]1CCCN1c1nc2ccccc2n([C@H]2C[C@H]3CCC[C@@H](C2)N3[C@H]2C[C@@H]3CCC[C@@H](C3)C2)c1=O [CC01, reference compound]	–	100	–	–	–	–
CC12C[C@H]3C[C@@H](N4[C@@H]5CCC[C@H]4C[C@@H](n4c(=O)c(N6CCC[C@H]6C(=O)O)nc6ccccc64)C5)C[C@@H]1C[C@@H]2C3 [CC02, reference compound]	58	97	1.2	–	–	–
O=C(O)[C@@H]1CCCN1c1nc2ccccc2n([C@H]2C[C@H]3COC[C@@H](C2)N3[C@H]2C[C@@H]3CCC[C@@H](CC3)C2)c1=O [CC03, reference compound]	60	33	–	–	–	–
CC12C[C@H]3C[C@@H](N4[C@@H]5COC[C@H]4C[C@@H](n4c(=O)c(N6CCC[C@H]6C(=O)O)nc6ccccc64)C5)C[C@@H]1C[C@@H]2C3 [CC04, reference compound]	21	14	–	–	–	–
